“And” between values parts separate entries of the source, which are not always exact repeats. Identical values can stand only once.
Key:
[1] = test system: anesthetized PAH minipigs; assay: PAH minipig, intratracheal application of dry powder formulations and of different hydrates (PAP, BP); type: in vivo, Göttingen Minipigs; details: for efficacy with regard to PAP reduction and systemic BP reduction: micronized hydrates; for PAP(mean) / BP (mean): per animal; for % changes vs. baseline on PAP: intratracheal application
Protocol: (§1) Healthy Göttingen Minipigs® Ellegaard (Ellegaard, Denmark) of both sexes and having a weight of 2-6 kg were used. The animals were sedated by i.m. administration of about 25 mg/kg ketamine and about 10 mg/kg azaperone. Anaesthesia was initiated by i.v. administration of about 2 mg/kg ketamine and about 0.3 mg/kg midazolam. Maintenance of anaesthesia was by i.v. administration of about 7.5-30 mg/kg/h ketamine and about 1-4 mg/kg/h midazolam (rate of infusion 1-4 ml/kg/h) and about 150 μg/kg/h pancuronium bromide (for example Pancuronium-Actavis). After intubation, the animals were ventilated by the ventilator at a constant respiratory volume (10-12 ml/kg, 35 breaths/min; Avea®, Viasys Healthcare, USA, or Engström Carestation, GE Healthcare, Freiburg, Germany) such that an end-tidal CO2 concentration of about 5% was achieved. Ventilation was performed with room air, enriched with about 40% oxygen (normoxia). For the measurement of the haemodynamic parameters such as pulmonary arterial pressure (PAP), blood pressure (BP) and heart rate (HR), catheters were inserted into the carotid artery to measure the blood pressure, and a Swan-Ganz® catheter was introduced in a flow-directed manner via the jugular vein into the pulmonary artery. The haemodynamic signals were recorded and evaluated by means of pressure transducers (Combitransducer, B. Braun, Melsungen, Germany)/amplifiers and Ponemah® as data acquisition software.
About 0.3-0.75 μg/kg/min of 9,11-didesoxy-9α,11α-epoxymethanoprostaglandine F2α (U-44069; Sigma, cat. no. D0400, or Cayman Chemical Company, cat. no. 16440), dissolved in physiological saline, were infused to achieve an increase of the mean pulmonary arterial pressure to values of over 25 mmHg.
After characterization of the effects of comparative example 11 after nebulization of compound solutions, in a further step the effects of crystalline forms of comparative example 11, e.g. sesquihydrate, e.g. example 6e on PAP and BP after inhaled application of different dry powder lactose formulations (table 52) were studied in anesthetized PAH minipigs.
As reference pure Lactose vehicle was applied in the beginning of each experiment.

[2] = test system: anesthetized thromboxane A2 challenged PAH-minipig; assay: Haemodynamics in the anesthetized thromboxane challenged minipig (PAH minipig), inhaled nebulized solution: lung selectivity and duration of action; type: in vivo, Göttingen Minipigs; details: minipig model, inhaled
Protocol: as §1
After the instruments have been placed into the animals, continuous infusion of a thromboxane A2 analog was initiated to increase the pulmonary arterial pressure. About 0.3-0.75 μg/kg/min of 9,11-didesoxy-9α,11α-epoxymethanoprostaglandine F2α (U-44069; Sigma, cat. no. D0400, or Cayman Chemical Company, cat. no. 16440), dissolved in physiological saline, were infused to achieve an increase of the mean pulmonary arterial pressure to values of over 25 mmHg. 30 minutes after the start of the infusion, a plateau was reached, and the experiment was started.
The test substances were administered as i.v. infusion or by inhalation. For the preparation of the solution for inhalation, the following procedure was adopted: For an animal having a weight of 4 kg, to prepare the stock solution (300 μg/kg), 1.2 mg of the test compound were weighed out and dissolved in a total volume of 3 ml (1% DMSO, 99% 0.2% strength citric acid solution, 1 n aqueous sodium hydroxide solution to adjust the pH to 8). The solution was then diluted to the concentration employed using 0.2% strength citric acid which had been adjusted to pH 8 beforehand with aqueous sodium hydroxide solution. In each test, 3 ml of the solution of test compound per 4 kg animal were nebulized in the inhalation arm of the respiratory circuit using the Aeroneb® Pro nebulizer system. The mean nebulization time was about 7 min from the start of the nebulization.
With respect to a prediction of the duration of action for human studies comparative example 11 was compared in the PAH minipig model after inhaled application to Ventavis® (=Iloprost, 10 μg/kg nominal dose), which we used as a clinical reference. […] Therefore, the duration of action is more than 6 times longer compared to Ventavis in this preclinical animal model.

[3] = % vs. prevalues, 375 μg/kg i.t., time 60, each animal
[4] = % vs. prevalues, 375 μg/kg i.t., time 70, each animal
[5] = 375 μg/kg i.t., time 0, Sesquihydrate
[6] = 375 μg/kg i.t., time −10, Sesquihydrate

O.O=C(O)c1ccc(CCN(CCc2ccccc2OCc2ccc(-c3ccc(C(F)(F)F)cc3)cc2Cl)[C@H]2CCCc3nc(C(=O)O)ccc32)cc1.O=C(O)c1ccc(CCN(CCc2ccccc2OCc2ccc(-c3ccc(C(F)(F)F)cc3)cc2Cl)[C@H]2CCCc3nc(C(=O)O)ccc32)cc1 [Example 6a, (5S)—{[2-(4-Carboxyphenyl)ethyl][2-(2-{[3-chloro-4′-(trifluoromethyl)biphenyl-4-yl]methoxy}phenyl)-ethyl]amino}-5,6,7,8-tetrahydroquinoline-2-carboxylic Acid Semihydrate]
efficacy with regard to PAP reduction and systemic BP reduction ([1]; 375 μg/kg i.t.): comparable efficacy
PAP(mean) ([1]; 375 μg/kg i.t., time 170): 24.0 mmHg and 32.4 mmHg and 29.9 mmHg
BP (mean) ([1]; 375 μg/kg i.t., time 180): 94 mmHg
PAP(mean) ([1]; 375 μg/kg i.t., time 180): 23.7 mmHg
BP (mean) ([1]; 375 μg/kg i.t., time 190): 94 mmHg and 93 mmHg
PAP(mean) ([1]; 375 μg/kg i.t., time 190): 24.4 mmHg and 32.4 mmHg and 29.2 mmHg
PAP(mean) ([1]; 375 μg/kg i.t., time 200): 24.8 mmHg and 32.4 mmHg and 29.4 mmHg
BP (mean) ([1]; 375 μg/kg i.t., time 210): 91 mmHg
PAP(mean) ([1]; 375 μg/kg i.t., time 210): 24.8 mmHg and 29.2 mmHg
PAP(mean) ([1]; 375 μg/kg i.t., time 220): 24.7 mmHg and 29.1 mmHg
PAP(mean) ([1]; 375 μg/kg i.t., time 230): 24.0 mmHg
BP (mean) ([1]; 375 μg/kg i.t., time 240): 77 mmHg
PAP(mean) ([1]; 375 μg/kg i.t., time 240): 24.1 mmHg and 28.1 mmHg
BP (mean) ([1]; 375 μg/kg i.t., time 250): 76 mmHg
PAP(mean) ([1]; 375 μg/kg i.t., time 250): 24.2 mmHg and 28.1 mmHg
BP (mean) ([1]; 375 μg/kg i.t., time 260): 76 mmHg
PAP(mean) ([1]; 375 μg/kg i.t., time 260): 24.1 mmHg and 30.6 mmHg and 28.1 mmHg
BP (mean) ([1]; 375 μg/kg i.t., time 270): 76 mmHg
PAP(mean) ([1]; 375 μg/kg i.t., time 270): 24.4 mmHg and 30.6 mmHg and 27.8 mmHg
BP (mean) ([1]; 375 μg/kg i.t., time 280): 75 mmHg
PAP(mean) ([1]; 375 μg/kg i.t., time 280): 24.3 mmHg and 28.0 mmHg
BP (mean) ([1]; 375 μg/kg i.t., time 290): 75 mmHg
PAP(mean) ([1]; 375 μg/kg i.t., time 290): 24.1 mmHg and 27.6 mmHg
BP (mean) ([1]; 375 μg/kg i.t., time 300): 77 mmHg
PAP(mean) ([1]; 375 μg/kg i.t., time 300): 23.7 mmHg and 30.5 mmHg and 27.7 mmHg
BP [1, 3]: 100.6% and 99.7% and 97.2%
PAP [1, 3]: 100.7% and 99.4% and 99.2%
BP [1, 4]: 102.6%
PAP [1, 4]: 94.7%

O.O.O.O=C(O)c1ccc(CCN(CCc2ccccc2OCc2ccc(-c3ccc(C(F)(F)F)cc3)cc2Cl)[C@H]2CCCc3nc(C(=O)O)ccc32)cc1.O=C(O)c1ccc(CCN(CCc2ccccc2OCc2ccc(-c3ccc(C(F)(F)F)cc3)cc2Cl)[C@H]2CCCc3nc(C(=O)O)ccc32)cc1 [Example 6e, (5S)—{[2-(4-Carboxyphenyl)ethyl][2-(2-{[3-chloro-4′-(trifluoromethyl)biphenyl-4-yl]methoxy}phenyl)-ethyl]amino}-5,6,7,8-tetrahydroquinoline-2-carboxylic Acid Sesquihydrate]
efficacy with regard to PAP reduction and systemic BP reduction ([1]; 375 μg/kg i.t.): comparable efficacy
BP (mean) [1, 5]: 104 mmHg
PAP(mean) [1, 5]: 41.9 mmHg
BP (mean) [1, 6]: 107 mmHg
PAP(mean) [1, 6]: 36.4 mmHg and 37.5 mmHg
% changes vs. baseline on PAP ([1]; time 80 (baseline = 100), each animal): 100.0%
% changes vs. baseline on PAP ([1]; time 90, each animal, Sesquihydrate): 98.9% and 103.6% and 99.8%
% changes vs. baseline on PAP ([1]; time 100, each animal, Sesquihydrate): 99.5% and 101.4% and 97.3%
% changes vs. baseline on PAP ([1]; time 110, each animal, Sesquihydrate): 89.3% and 98.7% and 86.8%
% changes vs. baseline on PAP ([1]; time 120, each animal, Sesquihydrate): 84.0% and 95.6% and 75.7%
% changes vs. baseline on PAP ([1]; time 130, each animal, Sesquihydrate): 78.9% and 93.7% and 70.2%
% changes vs. baseline on PAP ([1]; time 140, each animal, Sesquihydrate): 75.2% and 91.8% and 67.5%
% changes vs. baseline on PAP ([1]; time 150, each animal, Sesquihydrate): 74.0% and 76.0% and 65.4%
% changes vs. baseline on PAP ([1]; time 160, each animal, Sesquihydrate): 71.0% and 79.5% and 65.9%
% changes vs. baseline on PAP ([1]; time 170, each animal, Sesquihydrate): 68.5% and 74.3% and 61.5%
% changes vs. baseline on PAP ([1]; time 180, each animal, Sesquihydrate): 63.2% and 80.8% and 62.0%
% changes vs. baseline on PAP ([1]; time 190, each animal, Sesquihydrate): 61.5% and 80.8% and 58.6%
% changes vs. baseline on PAP ([1]; time 200, each animal, Sesquihydrate): 62.3% and 80.3% and 60.2%
% changes vs. baseline on PAP ([1]; time 210, each animal, Sesquihydrate): 61.0% and 80.7% and 59.4%
% changes vs. baseline on PAP ([1]; time 220, each animal, Sesquihydrate): 59.5% and 86.3% and 57.8%
% changes vs. baseline on PAP ([1]; time 230, each animal, Sesquihydrate): 58.6% and 82.6% and 57.8%
% changes vs. baseline on PAP ([1]; time 240, each animal, Sesquihydrate): 59.3% and 81.5% and 57.6%
% changes vs. baseline on PAP ([1]; time 250, each animal, Sesquihydrate): 59.3% and 82.2% and 56.1%
% changes vs. baseline on PAP ([1]; time 260, each animal, Sesquihydrate): 58.8% and 82.7% and 57.6%
% changes vs. baseline on PAP ([1]; time 270, each animal, Sesquihydrate): 59.9% and 78.3% and 55.4%
% changes vs. baseline on PAP ([1]; time 280, each animal, Sesquihydrate): 58.4% and 78.3% and 55.9%
% changes vs. baseline on PAP ([1]; time 290, each animal, Sesquihydrate): 57.4% and 79.6% and 53.9%
% changes vs. baseline on PAP ([1]; time 300, each animal, Sesquihydrate): 60.1% and 78.7% and 54.5%
% changes vs. baseline on PAP ([1]; time 310, each animal, Sesquihydrate): 58.4% and 77.6% and 53.7%
% changes vs. baseline on PAP ([1]; time 320, each animal, Sesquihydrate): 61.8% and 76.3% and 55.1%
% changes vs. baseline on PAP ([1]; time 330, each animal, Sesquihydrate): 61.3% and 74.8% and 53.0%
PAP ([1]; time 20 min, lactose vehicle first, test powder 1.5 mg/4 kg i.t. @90 min, per animal (n = 3), Sesquihydrate): 42.0 mmHg and 37.5 mmHg
BP ([1]; time 30 min, lactose vehicle first, test powder 1.5 mg/4 kg i.t. @90 min, per animal (n = 3)): 104 mmHg
PAP ([1]; time 30 min, lactose vehicle first, test powder 1.5 mg/4 kg i.t. @90 min, per animal (n = 3), Sesquihydrate): 41.9 mmHg and 37.1 mmHg and 37.5 mmHg
PAP ([1]; time 40 min, lactose vehicle first, test powder 1.5 mg/4 kg i.t. @90 min, per animal (n = 3), Sesquihydrate): 42.0 mmHg and 37.3 mmHg and 38.6 mmHg
PAP ([1]; time 50 min, lactose vehicle first, test powder 1.5 mg/4 kg i.t. @90 min, per animal (n = 3), Sesquihydrate): 41.4 mmHg and 37.4 mmHg and 39.8 mmHg
PAP ([1]; time 60 min, lactose vehicle first, test powder 1.5 mg/4 kg i.t. @90 min, per animal (n = 3), Sesquihydrate): 41.4 mmHg and 36.8 mmHg and 41.2 mmHg
PAP ([1]; time 70 min, lactose vehicle first, test powder 1.5 mg/4 kg i.t. @90 min, per animal (n = 3), Sesquihydrate): 41.0 mmHg and 37.4 mmHg and 41.3 mmHg
PAP ([1]; time 80 min, lactose vehicle first, test powder 1.5 mg/4 kg i.t. @90 min, per animal (n = 3), Sesquihydrate): 40.9 mmHg and 38.1 mmHg and 40.8 mmHg
BP ([1]; time 90 min, lactose vehicle first, test powder 1.5 mg/4 kg i.t. @90 min, per animal (n = 3)): 102 mmHg
PAP ([1]; time 90 min, lactose vehicle first, test powder 1.5 mg/4 kg i.t. @90 min, per animal (n = 3), Sesquihydrate): 40.4 mmHg and 39.5 mmHg

O=C(O)c1ccc(CCN(CCc2cc(F)ccc2OCc2ccc(-c3nc4cc(Cl)ccc4o3)cc2)C2CCCc3nc(C(=O)O)ccc32)cc1 (single isomer, unassigned) [compound 4, 5-{[2-(4-Carboxyphenyl)ethyl][2-(2-{[4-(5-chloro-1,3-benzoxazol-2-yl)benzyl]oxy}-5-fluorophenyl)-ethyl]amino}-5,6,7,8-tetrahydroquinoline-2-carboxylic Acid, reference compound]
duration of action [2]: sufficient duration of action

Source: patent US20250281480A1, “PHARMACEUTICAL DRY POWDER INHALATION FORMULATION” (Bayer Aktiengesellschaft, priority 2021, published 2025)
